The subject of one experiment is HBeAg (surrogate marker for cccDNA) in HepDES19 cells. Put plainly: Engineered HepDES19 primary screen assay (HBeAg ELISA). Format: cell-based, HBV. Conditions: Hepatitis B virus, HepDES19, 120 h, read-out: IC50 (HBeAg level, HepDES19 primary screen assay), HepDES19 cells, 5 days compound incubation, HBeAg ELISA. An excerpt: The assay was employed to screen for novel cccDNA inhibitors. HepDES19 is a cccDNA-producing cell line. In this cell line, HBeAg in the cell culture supernatant as surrogate marker, as HBeAg production depends on cccDNA level and activity. HepDES19 is an engineered cell line which contains a 1.1 unit length HBV genome, and pgRNA transcription from the transgene is controlled by Tetracycline (Tet). In the absence of Tet, pgRNA transcription will be induced, but HBV e antigen (HBeAg) could not be produced from this pgRNA due to very short leader sequence before the HBeAg start codon and the start codon is disrupted. Only after cccDNA is formed, the missing leader sequence and start codon mutation would be restored from the 3′-terminal redundancy of pgRNA, and then HBeAg could be synthesized. Therefore, HBeAg could be used as a surrogate marker for cccDNA (Zhou, T. et al., Antiviral Res. (2006), 72(2), 116-124; Guo, H. et al., J. Virol. (2007), 81(22), 12472-12484).
HepDES19 cells were seeded at 2×10^6 cells per T150 flask and cultured with the culture medium (Dulbecco's Modified Eagle Medium: Nutrient Mixture F-12 [DMEM-F12, Gibco Cat. 11320-82], 10% Fetal Bovine Serum [FBS, Clontech Cat. 631101], 0.1 mM Non-Essential Amino Acids Solution [NEAA, Gibco Cat. 11140-050], 50 μg/mL Penicillin-Streptomycin [PS, Invitrogen Cat. 15140-163], 500 μg/mL Geneticin [G418, Invitrogen Cat. 10131-027]) containing 3 μg/mL Tet (Sigma, Cat. 87128) for 5 days. Cells were then seeded at 4×10^6 cells per T150 in the same culture medium as described above in the absence of Tet for 8 days. Cells were then harvested and frozen at density of 2×10^6 cells per mL. For compound testing, the frozen cells were thawed and seeded into 96-well plates at a density of 6×10^4 cells per well. At 24 hours after seeding, half log serial dilutions of compounds made with Dimethyl sulfoxide (DMSO, Sigma, Cat. D2650) were further diluted with the same culture medium as described above before they were added to the cells to reach desired final compound concentrations and 1% DMSO concentration. Plates were then incubated at 37° C. for another 5 days before measurement of HBeAg level and cell viability. […] HBeAg level were measured with enzyme-linked immunosorbent assay (ELISA) kit (Shanghai Kehua Diagnostic Medical Products Co., Ltd). Cell viability was assessed using Cell Counting Kit-8 (DonJindo, Cat. CK04-20). IC50 values were derived from the dose-response curve using 4 parameter logistic curve fit method.
The compounds of the present invention were tested for their capacity to inhibit extracellular HBeAg level as described herein.
For orientation: ELISA stands for enzyme-linked immunosorbent assay.
A word on the IC50: it is the midpoint of a concentration-inhibition curve. `O=C(O)[C@H]1CC[C@@H](Oc2cc(Br)ccc2-c2cc(=O)c3cccc(Cl)c3o2)C1` (relative stereo) [Example B028-A, Cis-3-[5-bromo-2-(8-chloro-4-oxo-chromen-2-yl)phenoxy]cyclopentanecarboxylic acid]: the IC50 was 0.471 µM.
For `O=C(O)CCOc1cc(Br)c(OC(F)(F)F)cc1-c1cc(=O)c2cccc(Cl)c2o1` [Example A014, 3-[5-bromo-2-(8-chloro-4-oxo-chromen-2-yl)-4-(trifluoromethoxy)phenoxy]propanoic acid], the IC50 amounted to 3.22 µM.
Same read-out and setting: under `O=C(O)CCOc1cc(OC(F)(F)F)ccc1-c1cc(=O)c2ccc(Br)c(Cl)c2o1` [Example A023, 3-[2-(7-bromo-8-chloro-4-oxo-chromen-2-yl)-5-(trifluoromethoxy)phenoxy]propanoic acid] stands 29.6 µM.
On the same count and under the same terms, the figure for `Cc1cc(-c2cc(=O)c3cccc(Br)c3o2)c(OCCC(=O)O)cc1Cl` [Example A025, 3-[2-(8-bromo-4-oxo-chromen-2-yl)-5-chloro-4-methyl-phenoxy]propanoic acid] is 3.55 µM; for `COC(=O)CCOc1cc(Cl)c(C)cc1-c1cc(=O)c2cccc(Cl)c2o1` [Example A038, methyl 3-[5-chloro-2-(8-chloro-4-oxo-chromen-2-yl)-4-methyl-phenoxy]propanoate] it is 4.79 µM.
Still for that read-out and setting: under `O=C(O)CCOc1cc(C(F)(F)F)ccc1-c1cc(=O)c2c(O)ccc(Cl)c2o1` [Example A045, 3-[2-(8-chloro-5-hydroxy-4-oxo-chromen-2-yl)-5-(trifluoromethyl)phenoxy]propanoic acid] stands 2.03 µM.
In the case of `O=C(O)COc1cc(OC(F)(F)F)ccc1-c1cc(=O)c2cccc(Cl)c2o1` [Example A048, 2-[2-(8-chloro-4-oxo-chromen-2-yl)-5-(trifluoromethoxy)phenoxy]acetic acid], the concentration for half-maximal inhibition (IC50) amounted to 9.38 µM.
On to `O=C(O)CCCCCCOc1cc(C(F)(F)F)ccc1-c1cc(=O)c2cccc(Cl)c2o1` [Example A066, 7-[2-(8-chloro-4-oxo-chromen-2-yl)-5-(trifluoromethyl)phenoxy]heptanoic acid], for which the IC50 turned out to be 2.44 µM.
Still for that read-out and setting: the figure for `Cc1cc(-c2cc(=O)c3cccc(Cl)c3o2)c(OCC2(CC(=O)O)CC2)cc1Br` [Example A068, 2-[1-[[5-bromo-2-(8-chloro-4-oxo-chromen-2-yl)-4-methyl-phenoxy]methyl]cyclopropyl]acetic acid] is 5.7 µM; for `O=C(O)c1cccc(COc2cc(Br)ccc2-c2cc(=O)c3cccc(Cl)c3o2)c1` [Example A072, 3-[[5-bromo-2-(8-chloro-4-oxo-chromen-2-yl)phenoxy]methyl]benzoic acid] it is 0.366 µM.
Still for that read-out and setting: the figure for `CS(=O)(=O)C1CCN(C(=O)COc2cc(C(F)(F)F)ccc2-c2cc(=O)c3cccc(Cl)c3o2)C1` (centres unmarked) [Example A087, 8-chloro-2-[2-[2-(3-methylsulfonylpyrrolidin-1-yl)-2-oxo-ethoxy]-4-(trifluoromethyl)phenyl]chromen-4-one] is 4.98 µM; for `CCNS(=O)(=O)N[C@@H](COc1cc(C(F)(F)F)ccc1-c1cc(=O)c2cccc(Cl)c2o1)C(=O)OC` [Example A098, methyl (2S)-3-[2-(8-chloro-4-oxo-chromen-2-yl)-5-(trifluoromethyl)phenoxy]-2-(ethylsulfamoylamino)propanoate] it is 0.036 µM.
On the same count and under the same terms, the figure for `COc1cc(OC2CC(C(=O)O)C2)c(-c2cc(=O)c3cccc(Cl)c3o2)cc1OC` (centres unmarked) [Example B006, 3-[2-(8-chloro-4-oxo-chromen-2-yl)-4,5-dimethoxy-phenoxy]cyclobutanecarboxylic acid] is 5.48 µM.
For `COc1ccc(-c2cc(=O)c3cccc(Cl)c3o2)c(O[C@H]2C[C@H](C(=O)O)C2)c1` [Example B011-B, Trans-3-[2-(8-chloro-4-oxo-chromen-2-yl)-5-methoxy-phenoxy]cyclobutanecarboxylic acid], the half-maximal inhibitory concentration (IC50) was found to be 3.48 µM.
The same measure, in the same setting: under `COc1cc(O[C@H]2C[C@H](C(=O)O)C2)c(-c2cc(=O)c3cccc(Cl)c3o2)cc1Br` [Example B014, Trans-3-[4-bromo-2-(8-chloro-4-oxo-chromen-2-yl)-5-methoxy-phenoxy]cyclobutanecarboxylic acid] stands 15.5 µM; under `CC(C)c1ccc(-c2cc(=O)c3cccc(Cl)c3o2)c(O[C@H]2C[C@@H](C(=O)O)C2)c1` [Example B020-A, Cis-3-[2-(8-chloro-4-oxo-chromen-2-yl)-5-isopropyl-phenoxy]cyclobutanecarboxylic acid], 2.84 µM.
Take `COc1ccc(OC[C@H]2C[C@@H](C(=O)O)C2)c(-c2cc(=O)c3cccc(Cl)c3o2)c1` [Example B027-A]: the IC50 amounted to 2.47 µM.
On the same count and under the same terms, the figure for `O=c1cc(-c2ccc(C3CC3)cc2O[C@H]2C[C@H](C(=O)O)C2)oc2c(Cl)cccc12` [Example B035-B, trans-3-[2-(8-chloro-4-oxo-chromen-2-yl)-5-cyclopropyl-phenoxy]cyclobutanecarboxylic acid] is 2.02 µM.
Still for that read-out and setting: the figure for `O=c1cc(-c2ccc(Br)cc2O[C@H]2C[C@H](C(=O)O)C2)oc2c(Cl)ccc(O)c12` [Example B036-B, trans-3-[5-bromo-2-(8-chloro-5-hydroxy-4-oxo-chromen-2-yl)phenoxy]cyclobutanecarboxylic acid] is 0.407 µM.
`Cc1ccc(-c2cc(=O)c3c(O)ccc(Cl)c3o2)c(O[C@H]2C[C@H](C(=O)O)C2)c1` [Example B037-B, Trans-3-[2-(8-chloro-5-hydroxy-4-oxo-chromen-2-yl)-5-methyl-phenoxy]cyclobutanecarboxylic acid]: the IC50 came to 0.149 µM.
The same measure, in the same setting: the figure for `CCOc1ccc(-c2cc(=O)c3c(O)ccc(Cl)c3o2)c(O[C@H]2C[C@@H](C(=O)O)C2)c1` [Example B039-A, Cis-3-[2-(8-chloro-5-hydroxy-4-oxo-chromen-2-yl)-5-ethoxy-phenoxy]cyclobutanecarboxylic acid] is 6.76 µM; for `Cc1cc(-c2cc(=O)c3c(O)ccc(Cl)c3o2)c(O[C@H]2C[C@@H](C(=O)O)C2)cc1Br` [Example B040-A, cis-3-[5-bromo-2-(8-chloro-5-hydroxy-4-oxo-chromen-2-yl)-4-methyl-phenoxy]cyclobutanecarboxylic acid] it is 0.302 µM.
Same read-out and setting: the figure for `Cc1cc(-c2cc(=O)c3cccc(Cl)c3o2)c(O[C@H]2C[C@H](C(=O)NS(C)(=O)=O)C2)cc1Br` [Example B049-B, Trans-3-[5-bromo-2-(8-chloro-4-oxo-chromen-2-yl) 4-methyl-phenoxy]-N-methylsulfonyl-cyclobutanecarboxamide] is 8.74 µM.
For `COc1cc(O[C@H]2C[C@@H](C(=O)NS(C)(=O)=O)C2)c(-c2cc(=O)c3cccc(Cl)c3o2)cc1Br` [Example B055-A, Cis-3-[4-bromo-2-(8-chloro-4-oxo-chromen-2-yl)-5-methoxy-phenoxy]-N-methylsulfonyl-cyclobutanecarboxamide], the IC50 was determined as 3.59 µM.
Still for that read-out and setting: the figure for `O=C(O)[C@@H]1C[C@H](Oc2cc(Br)ccc2-c2cc(=O)c3cccc(Cl)c3o2)CN1` [Example B075, (2S,4S)-4-[5-bromo-2-(8-chloro-4-oxo-chromen-2-yl)phenoxy]pyrrolidine-2-carboxylic acid] is 0.774 µM.
Take `COc1cccc(S(=O)(=O)N2C[C@@H](Oc3cc(C(F)(F)F)ccc3-c3cc(=O)c4cccc(Cl)c4o3)C[C@H]2C(=O)O)c1` [Example B079]: the half-maximal inhibitory concentration (IC50) came to 1.52 µM.
In the case of `COc1cc(O[C@H]2C[C@@H](C(=O)O)N(S(=O)(=O)c3ccccc3)C2)c(-c2cc(=O)c3cccc(Cl)c3o2)cc1OC` [Example B081], the IC50 turned out to be 3.11 µM.
On the same count and under the same terms, under `O=C(O)[C@@H]1C[C@H](Oc2cc(OC(F)(F)F)ccc2-c2cc(=O)c3cccc(Cl)c3o2)CN1S(=O)(=O)c1ccccc1` [Example B085, (2S,4S)-1-(benzenesulfonyl)-4-[2-(8-chloro-4-oxo-chromen-2-yl)-5-(trifluoromethoxy)phenoxy]pyrrolidine-2-carboxylic acid] stands 4.57 µM.

The same experiment, now with this note: read-out: IC50 (HBeAg level, HepDES19 primary screen assay); HepDES19 cells, 5 days compound incubation, HBeAg ELISA.
`O=C(O)C1CC(COc2cc(Br)ccc2-c2cc(=O)c3cccc(Cl)c3o2)C1` (stereo in doubt) [Example B025-A, Cis-3-[[5-bromo-2-(8-chloro-4-oxo-chromen-2-yl)phenoxy]methyl]cyclobutanecarboxylic acid]: the IC50 turned out to be 4.92 µM.

(Values after patent US11708344B2, “Flavone derivatives for the treatment and prophylaxis of hepatitis B virus disease” (Hoffmann-La Roche Inc., priority 2018, dated 2023).)
